What was measured:
Assay type in all cases: in vivo
[1] = tested on: PLP-induced model of relapsing remitting EAE; assay: Proteolipid-induced relapsing-remitting EAE in mice: clinical score and pain
Description: (§1) The mouse model of experimental autoimmune encephalomyelitis (EAE) has been used extensively to understand the mechanisms underlying the immunopathogenesis of MS. […] Components of the immune system including T cells, macrophage, and antibodies are important contributors to myelin destruction in EAE mice. Further, inflammation also gives rise to multifocal regions demyelination culminating in clinical signs of neurologic dysfunction that include loss of tail tone, abnormal gait and partial-to-complete hind-limb paralysis. PLP-induced EAE model offers the ability to simultaneously investigate the pathogenic mechanisms of CNS inflammation and demyelination and MS-associated pain, a multi-targeted concept that we have optimized here at Allergan. Using sterile technique proteolipid protein myelin peptide (PLP) (139-159: […]) is mixed 1:1 with incomplete Freund's adjuvant (IFA) (Final concentration of 2 mg/ml PLP). 8-10 week old Female SJL mice (Taconic) are injected subcutaneously with 100 μl PLP/IFA (200 μg PLP/injection) on both the right and left hind-flank (day 0) using a 26G needle. Mice immunized using this protocol experience a relapsing-remitting clinical course with episodes of motor impairment interspersed with periods of remission/clinical improvement. Furthermore, these mice display a robust pain phenotype that is most pronounced during periods of clinical remission.
Using this protocol, the onset of PLP-induced EAE in SJL mice occurs at an incidence of (˜90-100%) and is generally apparent by ˜12 days post-immunization, reaching peak disease by 14-21 days. PLP-EAE mice show physical symptoms of neurologic impairment, progressing from partial loss of tail tonicity to partial-to-complete hind-limb paralysis. Up to 75% of the mice will experience a relapsing-remitting clinical course with periods of remission flanked by episodes of motor impairment (hind-limb weakness and paralysis). Histologically, mice display extensive inflammation within white matter tracts (areas containing myelinated axons) of the brain and spinal cord, progressive infiltration and accumulation of inflammatory cells, demyelination and axonal loss. Mice with severe EAE show extensive cellular infiltrates, widespread foci of demyelination. PLP-immunized mice typically display the most severe clinical disease during the first episode of neurologic impairment (days 14-21). […]
(§2) Mice were routinely visually scored for behavioral abnormalities on a scale from 0-5; 0-no abnormality, 1-partial loss of tail tonicity (partial limp tail), 2-loss of tail tonicity and hind-limb weakness 3-unsteady gait and partial hind-limb paralysis, 4-complete hind-limb paralysis and 5-moribund or dead. […] Allodynia was measured by the Von Frey hairs method as described earlier. […]

[2] = tested on: regulatory T cells and immune cells in the CNS; assay: Flow cytometry of immune cells and Treg cells in PLP-induced EAE mice
Description: as §1, with “Mice immunized using this protocol experience a relapsing-remitting clinical course with episodes of motor impairment interspersed with periods of remission/clinical improvement. Furthermore, these mice display a robust pain phenotype that is most pronounced during periods of clinical remission.” left out
as §2
To determine surface expression of CD4 (Helper T cells), CD8 (killer T cells), CD25 (activated helper T cells and regulatory T cells), CD45 (macrophage and microglial cells) and F4/80 (macrophage and microglial cells) 5×10^5 cells/100 μL FACS buffer (PBS, 0.02% sodium azide [Sigma-Aldrich] and 2% bovine serum albumin) were incubated with appropriate antibodies from BD biosciences, Mountain View, Calif. […] Expression was analyzed (FACSCalibur with CellQuest software; BD Biosciences, Mountain View, Calif.).

[3] = tested on: goblet cells and T cells in the conjunctiva; assay: Dry eye desiccating stress in mice, therapeutic mode, conjunctiva histology; settings: 3 mg/kg/day via osmotic minipump, mice previously exposed to blower, comparable to Cyclosporine A, FIG. 12
Description: C57BL/6 (C57BL/6NTac) and B6.Cg/NTac-Foxn1nuNE9 were purchased from Taconic, Inc. (Germantown, N.Y.). Mice were used at 6-10 weeks of age. Animal studies approval was obtained from the Allergan Animal Care and Use Committee. All studies adhered to the Association for Research in Vision and Ophthalmology statement for the Use of Animals in Ophthalmic and Vision Research. As described in the literature dry eye was induced by treating mice with subcutaneous injections of scopolamine hydrobromide (0.5 mg/0.2 ml; Sigma-Aldrich, St. Louis, Mo.) three times a day alternating between the left and right flanks (Neiderkorn et al, 2006). Mice were placed in a cage containing perforated plastic screens on each side of the cage to permit airflow from fans (one fan on each side of the cage) for 16 hr/day in a hood (AirClean Systems, Raleigh, N.C.). Room humidity was kept below 40%. Desiccating stress (DS) was induced for 10 consecutive days. Spleens and cervical lymph nodes (CLN) were collected from mice subjected to DS and NS, and one donor-equivalent of either spleen or CLN CD4+ cells was transferred i.p. to syngeneic nude mice. One splenic equivalent of T cells was equal to 5×10^7 cells. Three days later samples were collected for analysis. For tear collection, 1.5 μL of PBS was placed on each eye, and then 1 μL of tear was collected from both eyes and placed in 8 μL of cytokine assay buffer (Beadlyte; Millipore, Billerica, Mass.). Buffer and tear fluid were collected by capillary action using a 1 μL volume glass capillary tube (Drummond Scientific, Broomhall, Pa.) that was placed in the tear meniscus of the lateral canthus. Samples were frozen at −80° C. until the time of assay. Histological analysis was done by staining […] samples with antibody to CD4 and H&E staining to quantify goblet cells and T cells in the conjunctiva. To test the compounds in a therapeutic mode, the animals were exposed to the desiccating stress for two weeks and then allowed to rest for 7 days in regular housing cages. The animals were then re-exposed to desiccating stress for an additional 7 days to mimic relapsing form of chronic dry eye disease. Drug treatment with Compound B was started 2 days before re-exposure to desiccating stress. In both the studies Compound B was dosed at 3 mg/kg/day. Adoptive transfer, tear cytokine analysis and histological analysis were performed as described above.

[4] = mice immunized with proteolipid protein, 3 mg/kg/day by osmotic minipump, FIG. 3

Row | SMILES | pain [1, 4] | symptoms of MS (clinical course of disease) ([1]; treatment during the development of clinical disease, FIG. 4) | clinical score during relapses on days 14 (p<0.01) and 24 ([1]; treatment from days 7-10) | presence of immune cells in the CNS ([2]; flow cytometry at the end of the study, FIG. 5) | Treg number [2, 4] | T cell infiltration into the conjunctiva [3] | goblet cell loss [3] | clinical score compared to vehicle-treated mice from days 13-24 ([1]; TID oral dosing (3 mg/kg/day) from day 7-13, FIG. 6) | frequency of regulatory T cells (CD4+CD25hiFoxP3+) in the spinal cord ([2]; flow cytometry on day 37, FIG. 7)
1 | CCC1=CC(Cc2c[nH]cn2)CCC1 (centres unmarked) [Compound B] | reduced | significant effect on attenuating symptoms | reduced | significantly reduced | selectively boosted | significantly prevented | significantly prevented | – | –
2 | Clc1cccc(CNC2=NCCN2)c1Cl [Compound C] | – | – | – | – | – | significantly reduced | significantly reduced | significantly reduced | increased

From patent US10251865B2, “Method of activating regulatory T cells with alpha-2B adrenergic receptor agonists” (Allergan, Inc., priority 2010, dated 2019)
